Source: PubChem BioAssay (NCI)
“And” between values parts separate entries of the source, which are not always exact repeats. Equal entries are not always repeated.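 Step 1: Grow cells in 96-well plates. Step 2: Expose to compound for 48 hours at 5 concentrations. Step 3: Interpolate endpoints linearly; if unreached, use highest concentration. GI50 = concentration required for 50% inhibition of growth. TGI marks complete inhibition of growth.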

Legend:
Assay in all cases: inhibition of tumour cell growth, NCI panel, 48 h
[1] = test system: A498 renal
[2] = test system: CCRF-CEM leukemia
[3] = test system: COLO 205 colon
[4] = test system: EKVX NSCLC
[5] = test system: MCF7 breast
[6] = test system: MDA-MB-231 breast
[7] = test system: RPMI-8226 leukemia
[8] = test system: SF-268 CNS
[9] = test system: SNB-75 CNS
[10] = test system: UACC-257 melanoma

## OCc1c(-c2cccs2)oc(-c2cccs2)c1CO
[1]
  GI50: 34.3 µM
  TGI: 91.7 µM
[2]
  GI50: 48.7 µM
  TGI: > 100 µM
[3]
  GI50: 35.9 µM
  TGI: > 100 µM
[4]
  GI50: 34.6 µM
  TGI: > 100 µM
[5]
  GI50: 1.62 µM
  TGI: > 100 µM
[6]
  GI50: 47.3 µM
  TGI: 94 µM
[7]
  GI50: 41.5 µM
  TGI: > 100 µM
[8]
  GI50: 35 µM
  TGI: > 100 µM
[9]
  GI50: 69.4 µM
  TGI: > 100 µM
[10]
  GI50: 56.1 µM
  TGI: > 100 µM

## CC(NCCN(C)C)C1CCC2C3CCc4cc(O)ccc4C3CCC12C (configuration not stated)
[1]
  TGI: 8.38 µM
[2]
  TGI: 3.47 µM
[3]
  TGI: 3.54 µM
[4]
  TGI: 17.7 µM
[5]
  TGI: 11.5 µM
[6]
  TGI: 4.42 µM
[7]
  TGI: 7.35 µM
[8]
  TGI: 17.5 µM
[9]
  TGI: 10.2 µM
[10]
  TGI: 3.83 µM

## O=C(Nc1cc(Cl)c(I)c(Cl)c1)C(F)(F)F
[1]
  TGI: 47.8 µM
[2]
  TGI: 66.4 µM
[3]
  TGI: 53.9 µM
[4]
  TGI: > 100 µM
[5]
  TGI: > 100 µM
[6]
  TGI: > 100 µM
[7]
  TGI: > 100 µM
[8]
  TGI: > 100 µM
[9]
  TGI: > 100 µM
[10]
  TGI: > 100 µM

## NCC(=O)Nc1ccc(Cl)cc1C(=O)c1ccc[nH]1
[1]
  TGI: > 100 µM
[2]
  TGI: 22.5 µM
[3]
  TGI: > 100 µM
[4]
  TGI: > 100 µM
[5]
  TGI: > 100 µM
[6]
  TGI: > 100 µM
[7]
  TGI: > 100 µM
[8]
  TGI: > 100 µM
[9]
  TGI: > 100 µM
[10]
  TGI: > 100 µM

## COc1ccc2c(=O)c(-c3cc(OC)c(OC)cc3OC)coc2c1
[1]
  TGI: > 100 µM
[2]
  TGI: > 100 µM
[3]
  TGI: 42.6 µM
[4]
  TGI: > 100 µM
[5]
  TGI: > 100 µM
[6]
  TGI: > 100 µM
[7]
  TGI: > 40.3 µM
[8]
  TGI: > 100 µM
[9]
  TGI: 8.93 µM
[10]
  TGI: > 100 µM

## Cc1cccc(CNc2c3ccccc3nc3ccccc23)c1
[1]
  GI50: 1.32 µM
  TGI: 2.7 µM
[2]
  GI50: 2.77 µM
  TGI: 15 µM
[3]
  GI50: 1.69 µM
  TGI: 3.89 µM
[4]
  GI50: 2.31 µM
  TGI: 8.97 µM
[5]
  GI50: 1.9 µM
  TGI: 4.88 µM
[6]
  GI50: 1.65 µM
  TGI: 4.07 µM
[7]
  GI50: 1.87 µM
  TGI: 4.94 µM
[8]
  GI50: 3.06 µM
  TGI: 11.8 µM
[9]
  GI50: 1.08 µM
  TGI: 8.32 µM
[10]
  GI50: 2.11 µM
  TGI: 5.05 µM

## CCC/C=C/C=C/C(=O)OC1/C(=C/C(=O)OC)CC2CC(C(C)O)OC(=O)CC(O)CC3CC(OC(C)=O)C(C)(C)C(O)(CC4C/C(=C/C(=O)OC)CC(/C=C/C(C)(C)C1(O)O2)O4)O3 (configuration not stated)
[1]
  GI50: 7.67 µM and 9.27 µM
  TGI: 10.9 µM and 11 µM and > 12.5 µM
[2]
  GI50: 8.79 µM and 5.35 µM and > 12.5 µM
  TGI: 10.9 µM and 11 µM and > 12.5 µM
[3]
  TGI: 6.88 µM and 11 µM and > 12.5 µM
[4]
  GI50: > 10.9 µM and 5.21 µM and > 12.5 µM
  TGI: > 10.9 µM and 9.53 µM and > 12.5 µM
[5]
  GI50: > 10.9 µM and 5.88 µM and > 12.5 µM
  TGI: > 10.9 µM and 11 µM and > 12.5 µM
[6]
  GI50: > 12.5 µM
  TGI: 11 µM and > 12.5 µM
[7]
  GI50: 8.95 µM and > 12.5 µM
  TGI: > 10.9 µM and 11 µM and > 12.5 µM
[8]
  GI50: 6.18 µM and > 12.5 µM
  TGI: 9.13 µM and 11 µM and > 12.5 µM
[9]
  GI50: 10.3 µM and 2.85 µM and > 12.5 µM
  TGI: 10.9 µM and 9.84 µM and > 12.5 µM
[10]
  GI50: 5.13 µM and 8.15 µM and > 12.5 µM
  TGI: 6.42 µM and 11 µM and > 12.5 µM

## NC(CSC(c1ccccc1)(c1ccccc1)c1ccccc1)C(=O)O (configuration not stated)
[1]
  GI50: 0.493 µM
  TGI: 51.9 µM and 43 µM
[2]
  GI50: 1.59 µM and 0.942 µM
  TGI: 19.4 µM and > 100 µM
[3]
  GI50: 3.27 µM and 1.34 µM
[4]
  GI50: 3.24 µM
  TGI: 16 µM
[5]
  GI50: 0.665 µM and 0.416 µM
  TGI: 67.8 µM and > 100 µM
[6]
  GI50: 1.08 µM
  TGI: 4.65 µM and 6.45 µM
[7]
  GI50: 3.53 µM and 0.501 µM
  TGI: 37.3 µM and 22.4 µM and 20.7 µM
[8]
  GI50: 4.35 µM and 1.71 µM
  TGI: 63.3 µM and 85.7 µM
[9]
  GI50: 2.34 µM
  TGI: 9.45 µM and 50.6 µM and 29.2 µM
[10]
  GI50: 1.18 µM and 0.789 µM
  TGI: 53.8 µM and 94.6 µM and > 100 µM

## Nc1nc(N)nc(CCCCc2nc(N)nc(N)n2)n1
[1]
  TGI: > 100 µM
[2]
  TGI: > 100 µM
[3]
  TGI: > 100 µM
[4]
  TGI: > 100 µM
[5]
  TGI: > 100 µM
[6]
  TGI: > 100 µM
[7]
  TGI: > 100 µM
[8]
  TGI: > 100 µM
[9]
  TGI: > 100 µM
[10]
  TGI: > 100 µM

## N[C@H]1CCC[C@@H](O)C1O (some centres not stated)
[1]
  TGI: > 100 µM
[2]
  TGI: > 100 µM
[3]
  TGI: > 100 µM
[4]
  TGI: > 100 µM
[5]
  TGI: > 100 µM
[6]
  TGI: > 100 µM
[7]
  TGI: > 100 µM
[8]
  TGI: > 100 µM
[9]
  TGI: > 100 µM
[10]
  TGI: > 100 µM

## O=C(O)/C=C/c1c2ccc(=O)c(O)c-2oc2c(O)c(O)ccc12
[1]
  TGI: > 100 µM
[2]
  TGI: 23.2 µM
[3]
  TGI: > 100 µM
[4]
  TGI: > 100 µM
[5]
  TGI: 34.8 µM
[6]
  TGI: 66.5 µM
[7]
  TGI: 55.9 µM
[8]
  TGI: > 100 µM
[9]
  TGI: > 100 µM
[10]
  TGI: > 100 µM

## CN(C)Cc1ccc(NC(=O)c2cncc(C#Cc3cnc(N)c4ncccc34)c2)cc1C(F)(F)F
[1]
  GI50: 1.5 µM
  TGI: 4.63 µM
[2]
  GI50: 1.34 µM
  TGI: 3.57 µM
[3]
  GI50: 0.293 µM
  TGI: 14 µM
[4]
  GI50: 1.71 µM
  TGI: 3.36 µM
[5]
  GI50: 1.63 µM
  TGI: 3.33 µM
[6]
  GI50: 1.07 µM
  TGI: 2.36 µM
[7]
  GI50: 1.24 µM
  TGI: 3.58 µM
[8]
  GI50: 1.66 µM
  TGI: 3.2 µM
[9]
  GI50: 1.69 µM
  TGI: 3.09 µM
[10]
  GI50: 0.673 µM
  TGI: 2.53 µM

## O=[N+]([O-])c1ccccc1/C=N\NC(=S)N/N=C/c1ccccc1[N+](=O)[O-]
[1]
  GI50: 2.49 µM
  TGI: 28.4 µM
[2]
  GI50: 4.19 µM
  TGI: > 100 µM
[3]
  GI50: 11.3 µM
  TGI: > 100 µM
[4]
  GI50: 8.11 µM
  TGI: > 100 µM
[5]
  GI50: 3.12 µM
  TGI: > 100 µM
[6]
  GI50: 37.8 µM
  TGI: > 100 µM
[7]
  GI50: 5.91 µM
  TGI: > 100 µM
[8]
  GI50: 5.73 µM
  TGI: > 100 µM
[9]
  GI50: 2.21 µM
  TGI: 8.75 µM
[10]
  GI50: 10.3 µM
  TGI: > 100 µM

## CCN1C(=O)N(CC)C2C1NN=c1s/c(=C3\C(=O)Nc4ccccc43)c(=O)n12 (configuration not stated)
[1]
  GI50: 0.193 µM
  TGI: 0.728 µM
[2]
  GI50: 0.385 µM
  TGI: 27.1 µM
[3]
  GI50: 0.445 µM
  TGI: > 57.5 µM
[4]
  GI50: 2.12 µM
  TGI: > 100 µM
[5]
  GI50: 0.354 µM
  TGI: > 89.7 µM
[6]
  GI50: 2.41 µM
  TGI: 49.9 µM
[7]
  GI50: 0.306 µM
  TGI: 6.06 µM
[8]
  GI50: 10.6 µM
  TGI: 45.1 µM
[9]
  GI50: < 0.0447 µM
  TGI: 0.429 µM
[10]
  GI50: 25.2 µM
  TGI: > 100 µM

## COc1cc(C[C@H]2COC(=O)[C@]2(O)Cc2ccc(OCc3ccccc3)c(OC)c2)ccc1OCc1ccccc1
[1]
  GI50: 27.5 µM
  TGI: 99.1 µM
[2]
  GI50: > 100 µM
  TGI: > 100 µM
[3]
  GI50: 5.16 µM
  TGI: 24.1 µM
[4]
  GI50: 24.2 µM
  TGI: > 100 µM
[5]
  GI50: 8.17 µM
  TGI: > 100 µM
[6]
  GI50: > 100 µM
  TGI: > 100 µM
[7]
  GI50: 71.9 µM
  TGI: > 100 µM
[8]
  GI50: 73.7 µM
  TGI: > 100 µM
[9]
  GI50: > 100 µM
  TGI: > 100 µM
[10]
  GI50: 16 µM
  TGI: > 100 µM

## COc1ccc([N+](=O)[O-])c2c(NCCCN(C)C)c(C)c(C)nc12
[1]
  TGI: > 100 µM
[2]
  TGI: > 100 µM
[3]
  TGI: > 100 µM
[5]
  TGI: > 100 µM
[6]
  TGI: > 100 µM
[7]
  TGI: > 100 µM
[8]
  TGI: > 100 µM
[9]
  TGI: > 100 µM
[10]
  TGI: > 100 µM
